Tested on: striatal dopamine (DA) release in MI2 mice
Experiment: Dose-response study in MI2 mice: striatal dopamine release by in vivo microdialysis
Design: species or system mouse
Settings: up to 300 mg/kg/day in food
Protocol: An anle138b pharmacodynamics dose-response study was performed using MI2 mice, a novel model of α-synucleinopathy characterized by a progressive PD-like phenotype including accumulation of α-synuclein inclusions in nigrostriatal dopaminergic neurons and impairment of striatal dopamine (DA) release (Wegrzynowicz et al., 2019). The research was carried out in accordance with the Animals (Scientific Procedures) Act 1986 Amendment Regulations 2012 after the review by the University of Cambridge Animal Welfare and Ethical Review Body (AWERB), under the project license 70/8383. Anle138b treatment was commenced at 6 months, an age when impairment of striatal DA release is already observed in MI2 mice, but prior to nigral neuronal loss. […] After 2 months of treatment (at the age of 8 months), striatal release of DA was analysed using in vivo microdialysis, as previously reported (Wegrzynowicz et al., 2019). […] DA levels in the microdialysates were measured by high performance liquid chromatography with electrochemical detection, as described in (Garcia-Reitböck et al., 2010). […] The obtained chromatograms were analysed with Chromeleon Chromatography Data System (V 6·2; Dionex). […]

SMILES: Brc1cccc(-c2cc(-c3ccc4c(c3)OCO4)n[nH]2)c1 [anle138b, 3-(1,3-benzodioxol-5-yl)-5-(3-bromophenyl)-1H-pyrazole]
- Effect on striatal dopamine release at higher doses: stabile maximal effects were observed
